Earlier results, collected in patent US12062414B1, “System and method for predicting susceptibility of genus Klebsiella to amikacin” (Peking Union Medical College Hospital, Chinese Academy of …, priority 2023, dated 2024).

Test system: carbapenem-resistant Klebsiella pneumoniae
Details: isolated from 2014-2017; data from 252/403

NCC[C@H](O)C(=O)N[C@@H]1C[C@H](N)[C@@H](O[C@H]2O[C@H](CN)[C@@H](O)[C@H](O)[C@H]2O)[C@H](O)[C@H]1O[C@H]1O[C@H](CO)[C@@H](O)[C@H](N)[C@H]1O [amikacin]
resistance rate to amikacin: 62.5%
